Publication PMC11854273, “Screening of the Antimelanoma Activity of Monoterpenes—In Vitro Experiments on Four Human Melanoma Lines” (Current Issues in Molecular Biology, 2025)
Read-outs that look alike come from different tables or passages of the source.

Assays:
[1] = test system: malignant melanoma cell lines A375, SK-MEL28, FM55P, FM55M2; test: LDH cytotoxicity assay, melanoma lines; details: 72 h
Method: Four malignant melanoma cell lines, FM55P, FM55M2 (ECACC, Public Health England, Porton Down, UK), A375 and SK-MEL28 (ATCC, Manassas, VA, USA) were used. The immortalized human normal keratinocyte (HaCaT; ATCC, Manassas, VA, USA) served as a reference cell line. Of note, the A375 cell line is the original and not a CRISPR-modified version of the cell line, and all the tested cell lines in this study have the BRAF V600E mutation. The experimental cell culture conditions were as follows: 37 °C in a humidified atmosphere of 95% air and 5% CO2. The culture media used were as follows: for A375—DMEM high glucose; for SK-MEL28—EMEM; and for FM55P and FM55M2—RPMI1640 (All from Sigma-Aldrich, St. Louis, MO, USA). Previous publications described in more detail the growth conditions of these cell line cultures.
Specified densities (as above) of all the studied melanoma and normal human cell line were plated on microtiter plates (NEST). […] The LDH test was carried out after 72 h of incubation with the tested terpenes according to the manufacturer’s instructions. A more detailed description of the steps of the LDH test was previously provided.
GraphPad Prism (version 8.0, San Diego, CA, USA) was used for statistical analysis of the data (from the MTT and LDH tests). The analyses were performed with a one-way ANOVA test followed by Tukey’s post hoc test. Data were presented as means ± standard errors (SEMs). The median inhibitory concentration (IC50) values for the tested terpenes were calculated automatically with a computer-assisted log-probit method using an MS Excel spreadsheet, as previously described.

[2] = test system: normal human keratinocytes HaCaT; test: MTT cell viability assay, normal keratinocytes; type: cell-based; details: for IC50: Homo sapiens
Method: (§1) All tested cell lines—the HaCaT cell line model of human keratinocyte cells (density: 1 × 10^4 cells/mL) and four human malignant melanoma lines (density: 2–3 × 10^4 cells/mL, depending on the cell line—were plated on microtiter plates (NEST Biotechnology, Wuxi, China). After a day (24 h) of incubation, the medium was replaced with a fresh medium to which increasing concentrations of the tested substances were added. The experimental steps of the MTT assay were previously described. Each experiment in the MTT assay was performed in triplicate to ensure the repeatability and validity of the results.
(§2) Data were presented as means ± standard errors (SEMs).

[3] = test system: SK-MEL28 malignant melanoma cell line; test: MTT cell viability assay, SK-MEL28; type: cell-based; details: Homo sapiens
Method: as §1, §2

[4] = test system: malignant melanoma cell lines A375, SK-MEL28, FM55P, FM55M2; test: MTT cell viability assay, four melanoma lines taken together; type: cell-based, human; details: for effect on melanoma cell viability (in words): four melanoma lines; for IC50: read-out: IC50 range depending on the melanoma cell line
Method: as §1, §2

[5] = test system: FM55M2 malignant melanoma cell line; test: MTT cell viability assay, FM55M2; type: cell-based; details: Homo sapiens, 72 h
Method: as §1, §2

[6] = test system: FM55P malignant melanoma cell line; test: MTT cell viability assay, FM55P; type: cell-based; details: Homo sapiens, 72 h
Method: as §1, §2

MCF-7 breast cancer line = test system: MCF-7 breast cancer line; set-up: method as in PMID 32772589; details: cited from earlier work
MDA-MB-231 cells = test system: MDA-MB-231 cells; set-up: method as in PMID 32772589; details: cited from earlier work
[7] = test system: A375 malignant melanoma cell line; test: MTT cell viability assay, A375; type: cell-based; details: Homo sapiens
Method: as §1, §2

A549 line = test system: A549 line; set-up: method as in PMID 31202132; details: cited from earlier work
[8] = test system: mouse melanoma B16(F10) cells; details: B16F10; cited from earlier work
[9] = test system: Ishikawa cell line, of endometrial cancer; details: 24 h of incubation; cited from earlier work
[10] = test system: colo-205 colon cancer cell line; details: cited from earlier work
A431 skin cancer line = details: A431, MTT assay; cited from earlier work
[11] = test system: liver cancer cell lines and mouse melanoma B16-F10; set-up: method as in PMID 23453306; details: authors' conversion of the μg/mL values; cited from earlier work
[12] = test system: human cervical cancer, human lung cancer, monkey kidney cells and mouse macrophages; set-up: method as in doi:10.1590/S0044-59672007000200015; details: 200 µg/mL (≈1.5 mM); cited from earlier work
[13] = test system: B16-F10 mouse melanoma cell lines; set-up: method as in PMID 22352891; details: B16-F10, MTT test, cited from earlier work
[14] = test system: MDA MB-231 breast cancer cell line; set-up: method as in PMID 32526880, PMID 30733560; details: cited from earlier work
[15] = test system: A549 lung cancer cell line; set-up: method as in PMID 32420353; details: cited from earlier work
[16] = test system: SW620 colon cancer cell line; set-up: method as in PMID 31323842; details: cited from earlier work
[17] = test system: 4T1 breast cancer cell line; set-up: method as in PMID 32526880, PMID 30733560; details: cited from earlier work
[18] = test system: H1299 lung cancer cell line; set-up: method as in PMID 32420353; details: cited from earlier work
[19] = test system: HT29 colon cancer cell line; set-up: method as in PMID 31323842; details: cited from earlier work
[20] = HaCaT, MTT assay, 72 h, mean ± SEM, read-out: IC50
[21] = SK-MEL-28, SK-MEL28, MTT assay, 72 h, mean ± SEM, read-out: IC50
[22] = range over the four human melanoma lines, MTT, 72 h
[23] = FM55M2, MTT assay, mean ± SEM, read-out: IC50
[24] = FM55P, MTT assay, mean ± SEM, read-out: IC50
[25] = A-375, A375, MTT assay, 72 h, mean ± SEM, read-out: IC50
[26] = A549, authors' conversion, read-out: IC50

SMILES | concentration with statistically significant cytotoxicity towards melanoma cells [1] | concentration significantly affecting viability of normal keratinocytes ([2]; HaCaT, MTT, 72 h) | IC50 [2, 20] | IC50 [3, 21] | effect on melanoma cell viability (in words) ([4]; MTT, 72 h) | IC50 [4, 22] | IC50 [5, 23] | IC50 [6, 24] | IC50 [7, 25] | effect on normal keratinocyte cells (in words) ([2]; HaCaT, MTT) | IC50 range depending on the melanoma cell line [4, 22] | further results
CC(C)=CCCC(C)CCO (stereo not drawn) [Citronellol, citronellol] | above 4.2 mM | 1200 to 6000 µM | 6270 ± 1150 µM | 4810 ± 290 µM | showed a significant anti-viability effect | 2170 to 4810 µM | 2170 ± 300 µM | 2450 ± 380 µM | 3630 ± 560 µM |  |  | IC50 (MCF-7 breast cancer line): 80 µM; IC50 (MDA-MB-231 cells): 35 µM
Cc1ccc(C(C)C)cc1O [Carvacrol, carvacrol] | 50 to 650 µM |  |  |  | showed a significant anti-viability effect |  |  |  |  | did not negatively affect normal human keratinocyte cells |  | concentration up to which HaCaT viability was not significantly affected ([2]; HaCaT, MTT, 72 h): ≤ 650 µM; IC50 ([2]; HaCaT, 72 h): > 650 µM; IC50 (A549 line; [26]): ~670 µM; IC50 (A549 line; A549): 100 µg/mL; IC50 ([3]; SK-MEL-28, 72 h): 60 ± 10 µM; IC50 ([4]; Homo sapiens, 72 h): 50 to 60 µM; selectivity index ([4]; SI = IC50 for HaCaT / IC50 for respective melanoma cell line, MTT): above 10; IC50 [5]: 50 µM; IC50 [6]: 60 ± 10 µM; IC50 ([7]; A-375, 72 h): 60 µM; IC50 [8]: 120 ± 15 µM
CC(C)=CCC/C(C)=C/CO [Geraniol, geraniol] |  |  | > 650 µM | 440 ± 30 µM | showed a significant anti-viability effect | 270 to 440 µM | 420 ± 20 µM | 330 ± 20 µM | 270 ± 30 µM |  |  | IC50 [9]: 260 µM; IC50 [10]: 20 µM; IC50 [8]: 150 ± 19 µM; IC50 (A431 skin cancer line): 98 µM
C=CC(=C)CCC=C(C)C [Myrcene, myrcene] |  | 3000 µM |  |  |  |  |  |  |  |  | could not be determined | concentration up to which no significant inhibition of melanoma line growth ([4]; MTT, 72 h): up to 5 mM; IC50 [11]: 70 to 90 µM; cytotoxic activity (in words) [12]: no cytotoxic activity
CC(C)=CCC/C(C)=C\CO [Nerol, nerol] |  |  |  |  | Its effect was not significant |  |  |  |  |  | could not be determined | concentration significantly affecting viability of normal keratinocytes ([2]; human, 72 h): 650 µM; concentration significantly affecting viability of melanoma cell lines ([4]; MTT, 72 h): 0.13 to 0.65 mM
C=C(C)CCC[C@H](C)CCO [Rhodinol, rhodinol] |  | ≥ 4800 µM |  |  | did not show any significant activity |  |  |  |  |  | could not be determined | concentration significantly affecting viability of melanoma cell lines ([4]; MTT, 72 h): ≥ 4.8 mM
Cc1ccc(C(C)C)c(O)c1 [Thymol, thymol] | above 0.03 mM |  | > 1300 µM | 510 ± 30 µM | showed a significant anti-viability effect | 460 to 530 µM | 530 ± 50 µM | 460 ± 50 µM | 480 ± 40 µM | at high concentrations, it affects the viability of normal cell lines without cytotoxicity |  | concentration from which cytotoxicity was statistically significant ([1]; SK-MEL28 line): ≥ 30 µM; IC50 ([13]; authors' conversion, read-out: IC50): 400 µM; IC50 [13]: 60.09 µg/mL
CC(C)=CCC/C(C)=C/C=O [Citral, citral] | above 0.2 mM |  | 290 ± 10 µM | 100 ± 10 µM | showed a significant anti-viability effect | 80 to 130 µM | 80 µM | 90 ± 10 µM | 130 ± 10 µM | at high concentrations, it had a negative effect on normal keratinocyte cells |  | inhibition of HaCaT proliferation ([2]; 0.3 mM, MTT): up to 28%; inhibition of HaCaT proliferation ([2]; highest concentration of 0.4 mM, MTT): approximately 10%; IC50 ([14]; MDA MB-231, authors' conversion, read-out: IC50): ~135 µM; IC50 ([14]; MDA MB-231): 20.5 ± 1.41 µg/mL; IC50 [15, 26]: ~11 µM; IC50 ([15]; A549): 1.73 ± 0.37 µg/mL; IC50 ([16]; SW620, authors' conversion, read-out: IC50): ~148 µM; IC50 ([16]; SW620): 22.50 ± 2.50 µg/mL; IC50 ([17]; 4T1, authors' conversion, read-out: IC50): ~140 µM; IC50 ([17]; 4T1): 21.4 ± 2.82 µg/mL; IC50 ([18]; H1299, authors' conversion, read-out: IC50): ~26 µM; IC50 ([18]; H1299): 4.01 ± 0.30 µg/mL; IC50 ([19]; HT29, authors' conversion, read-out: IC50): ~143 µM; IC50 ([19]; HT29): 21.77 ± 0.23 µg/mL
